Key:
Type in all cases: in vivo, mouse
TUBB2C = experiment: Microarray gene expression, hippocampus of SAMP8 mice (Example 3), housekeeping gene; settings: SAMP8 female pool
Experimental: (§1) Total RNA was extracted from samples using the RNeasy extraction kit (Qiagen). The quality and concentration of the RNA was analyzed using the Agilent 2100 bioanalyzer and NanoDrop™ ND-1000 (Thermo Scientific). Samples with RNA integrity number (RIN)<6.0 were discarded. Total RNA (0.5 μg) amplification and labelling with Cy3 or Cy5 was carried out using the Eberwein mRNA amplification procedure (Van Gelder et al, Proc Natl Acad Sci USA 1990, 87:1663-1667) employing the MessageAmp™ aRNA amplification kit from Ambion (Applied Biosystems) following the manufacturer's instructions with minor modifications. As hybridization controls, plant mRNAs were transcribed from a plasmid containing the Zea mays Xet (xyloglucan endo-transglycosylase) cDNA and from a plasmid containing the Zea mays Zmmyb42 cDNA, independently prepared Cy3 and Cy5 labelled aRNA from these two RNAs using the Eberwein mRNA amplification procedure (as disclosed in Cerdà et al, Gen Comp Endocrinol 2008, 156:470-481).
(§2) The Cy3- and Cy5-labelled cRNAs and spikes were combined and hybridized to the microarray described in Example 2.6 for 17 h at 60° C. using Agilent's gaskets G2534-60002, G2534A hybridization chambers and DNA Hybridization Oven G2545A, according to the manufacturer's instructions. More specifically, equal amounts of Cy3 and Cy5 labeled Xet aRNA as well as equal amounts of Cy3 and Cy5 labeled Zmmyb42 aRNA were spiked into each mixture hybridized to the array. Arrays were washed and raw data were obtained using Agilent's DNA Microarray Scanner G2505B and Feature Extraction software (v10.1). The raw fluorescence intensity data were processed using applicant's proprietary software, and consists in the following operations:
(§3) Data normalization was carried out by an improved version of the nonlinear Q-splines normalization method (Workman et al., Genome Biol 2002, 3(9):research0048.1-0048.16). Normalization results were presented graphically as MA plots, as first described by Dudoit et al (Dudoit et al, Statistica Sinica, 2002, 12:111-139). Each point corresponds to a probe of the DNA array. M values (vertical axis) are the log-differential expression ratios. A values (horizontal axis) are the log-intensities of the spots. M and A are calculated from the Cy5 and Cy3 intensity values as of each spot. The DNA Array data is normalized using an improved version of non-linear Q-Splines normalization described by Workman et al., Genome Biol 2002, 3(9):research0048.1-0048.16. This process is useful to correct the deviation of the M values from the statistical assumption that most of the spots have M=0 in MA plots. The method allows the adjustment of all M values to form a cloud centered at M=0 in all intensity ranges. The data used to calculate the normalization fitting curve is the totality of the raw measurement dataset, excluding the signals for the probes for the spiked-in plant RNA controls and negative controls. In order to be able to normalize properly the data among all the experiments, the probe-set must include an important group of genes that should have no change (M=0) in the experiment. The normalization function is then applied to all the data, including controls.
(§4) Normalized and log-transformed data were used to calculate log 2 (sample/control) and Fold Change (FC) values. No background subtraction was applied to the signal intensity values during data processing, permitting robust selection of differentially expressed genes with low expression levels at the cost of potential sub-estimation of change when intensity levels are close to the array background level.
(§5) The technical replicate analysis is the statistical processing of the microarray data. Replicates were calculated to measure oligo replicates on an array or between replicates of experiments on different arrays (i.e. hybridization of the same sample). […]

TUBB3 = experiment: as above; settings: SAMP8 female pool
Experimental: as §1, §2, §3, §4, §5

S100A8 = experiment: qRT-PCR, hippocampus of SAMP8 mice (Example 5); settings: SAMP8 female mice
Description: qRT-PCR is a variant of the PCR (Polymerase Chain Reaction) method that permits the simultaneous exponential amplification and detection of specific cDNA fragments. The Taqman gene expression assays employ the principle of doubly labeled hydrolysis probes. The probes are marked with a fluorescent moiety at their 5′ end and with a quencher moiety at the 3′ end, which prevents the generation of fluorescence according to the Förster energy transfer principle.
During the amplification process, the hydrolysis probe hybridizes to its complementary sequence in the target amplicon. During each cycle, the Taq polymerase initiates the production of a copy of the target sequence starting from the primer. When the Taq polymerase reaches the hydrolysis probe, its 5′-3′ exonuclease activity fragments the hydrolysis probe, and liberates the fluorescent group from the quencher moiety, resulting in the emission of a fluorescent signal.
In the exponential phase of the amplification reaction, the intensity of the fluorescence is directly proportional to the quantity of PCR product formed. The LightCycler® 480 Software determines the “crossing point” (Cp), i.e. the point where the reaction's fluorescence reaches the maximum of the second derivative of the amplification curve, which corresponds to the point where the acceleration of the fluorescence signal is at its maximum. […] The 2-Cp values are proportional to the target mRNA concentration in the original RNA sample.
Samples from animals receiving treatment for 2 months and 4 months were processed and statistically analyzed together. After extraction (RNeasy Mini KIT; QIAGEN), total RNA was reverse transcribed to obtain 1st strand cDNA (High Capacity RNA-to-cDNA Master Mix; Applied Biosystems). A serial dilution of 1st strand product from hippocampus was used to perform triplicate qRT-PCR (Taqman gene expression assay, Life technologies) reactions to analyze the Cp values of S100A8 and S100A9. Cp increase was normalized relative to the expression level of an endogenous reference gene (GADPH).

C57BL/6 mice = experiment: Experimental Autoimmune Encephalomyelitis (EAE) model, MOG35-55
Experimental: In particular, the murine EAE model as described herein, using MOG35-55 and C57BL/6 mice strain, is considered a validated preclinical model of the chronic progressive form of MS.
To induce chronic EAE by active immunization, C57BL/6 mice were immunized s.c. with 100 μg of myelin oligodendrocyte glycoprotein MOG35-55 emulsified in complete Freund's adjuvant (CFA) containing 4 mg/ml Mycobacterium tuberculosis H37 RA. Mice also received i.p. injections of 200 ng of pertussis toxin on days 0 and 2.
Mice were scored daily for signs of EAE according to the following clinical scoring system: 0, no clinical signs; 0.5, partial loss of tail tonicity; 1, complete loss of tail tonicity; 2, flaccid tail and abnormal gait; 3, hind leg paralysis; 4, hind leg paralysis with hind body paresis; 5, hind and fore leg paralysis; and 6, death.

## (−) 5-((((trans)-2-(4-(benzyloxy)phenyl)cyclopropyl)amino)methyl)-1,3,4-oxadiazol-2-amine [Compound 1]
TUBB2C; HD 3.2 mg/kg/day
  Hybridization signal sample_Cy5 TUBB2C: 9173
TUBB2C; HD 3.2 mg/kg/day vs SAMP8 VEH
  log2 (sample/control) TUBB2C: 0.1327
TUBB2C; LD 0.96 mg/kg/day
  Hybridization signal sample_Cy5 TUBB2C: 9392.47
TUBB2C; LD 0.96 mg/kg/day vs SAMP8 VEH
  log2 (sample/control) TUBB2C: 0.1199
TUBB3; HD 3.2 mg/kg/day
  Hybridization signal sample_Cy5 TUBB3: 3168.4
TUBB3; HD 3.2 mg/kg/day vs SAMP8 VEH
  log2 (sample/control) TUBB3: 0.05769
TUBB3; LD 0.96 mg/kg/day
  Hybridization signal sample_Cy5 TUBB3: 3002.3
TUBB3; LD 0.96 mg/kg/day vs SAMP8 VEH
  log2 (sample/control) TUBB3: 0.04498
S100A8
  S100A8 expression (qRT-PCR): down-regulated S100A8 expression tendency
C57BL/6 mice; 1 or 3 mg/kg oral once a day, days 12-16 and 19-23 postimmunization
  development of EAE, disease incidence and severity measured by daily clinical score: greatly inhibited the development of EAE
C57BL/6 mice; 40 days after disease onset
  mice almost completely recovered: 30%
C57BL/6 mice; after cessation of the treatment
  duration of protective effect: maintained for a long-period of time after cessation of the treatment
C57BL/6 mice; group treated with 1 or 3 mg/kg oral
  mice displaying mild symptoms: 40-70%

Source: patent US20180284095A1, “BIOMARKERS ASSOCIATED WITH LSD1 INHIBITORS AND USES THEREOF” (Oryzon Genomics, S.A., priority 2015, published 2018)
